Measurements published in publication PMC12102759 (Protein Science : A Publication of the Protein Society, 2025).

test system: G3BP1 NFT2; type: binding, human; conditions: library DMS-CoV; bait G3BP1 NFT2; prey N; peptide APRITFGGPSDSTGSN; listed as aa = residue placed at this position; column sums to 1

**Q.** How did the “DMS PSSM value, T (position 5)” value turn out when APRITFGGPSDSTGSN T5V (APRIVFGGPSDSTGSN) was run?
**A.** Its value is 0.

**Q.** How did the “DMS PSSM value, R (position 3)” value turn out when APRITFGGPSDSTGSN R3P (APPITFGGPSDSTGSN) was run?
**A.** Its value is 0.2686.

**Q.** With APRITFGGPSDSTGSN P2A (AARITFGGPSDSTGSN) as the sequence, how does the “DMS PSSM value, P (position 2)” value read?
**A.** The value was 0.004798.

**Q.** Which “DMS PSSM value, R (position 3)” value does the source give for APRITFGGPSDSTGSN R3K (APKITFGGPSDSTGSN) here?
**A.** Its value is 0.0004363.

**Q.** Which “DMS PSSM value, F (position 6)” value does the source give for APRITFGGPSDSTGSN F6Y (APRITYGGPSDSTGSN) here?
**A.** Its value is 0.004533.

**Q.** For “APRITFGGPSDSTGSN G14S (APRITFGGPSDSTSSN)”, which “DMS PSSM value, G (position 14)” value is on record?
**A.** Its value is 0.004295.

**Q.** Which “DMS PSSM value, D (position 11)” value does the source give for “APRITFGGPSDSTGSN D11M (APRITFGGPSMSTGSN)” here?
**A.** Its value is 0.4258.

**Q.** For “APRITFGGPSDSTGSN S12T (APRITFGGPSDTTGSN)”, which “DMS PSSM value, S (position 12)” value is on record?
**A.** The value was 0.00392.

**Q.** Which “DMS PSSM value, I (position 4)” value does the source give for APRITFGGPSDSTGSN I4K (APRKTFGGPSDSTGSN) here?
**A.** Its value is 0.

**Q.** APRITFGGPSDSTGSN R3Y (APYITFGGPSDSTGSN) was tested. Which “DMS PSSM value, R (position 3)” value did it give?
**A.** The value was 0.03984.

**Q.** Which “DMS PSSM value, G (position 14)” value does the source give for “APRITFGGPSDSTGSN G14W (APRITFGGPSDSTWSN)” here?
**A.** Its value is 0.2634.

**Q.** Which “DMS PSSM value, P (position 2)” value does the source give for APRITFGGPSDSTGSN P2N (ANRITFGGPSDSTGSN) here?
**A.** Its value is 0.

**Q.** Which “DMS PSSM value, S (position 15)” value does the source give for “APRITFGGPSDSTGSN S15G (APRITFGGPSDSTGGN)” here?
**A.** The value was 0.002342.

**Q.** Which “DMS PSSM value, P (position 2)” value does the source give for APRITFGGPSDSTGSN P2Q (AQRITFGGPSDSTGSN) here?
**A.** The value was 0.0005858.

**Q.** With “APRITFGGPSDSTGSN S10A (APRITFGGPADSTGSN)” as the sequence, how does the “DMS PSSM value, S (position 10)” value read?
**A.** Its value is 0.0189.

**Q.** Which “DMS PSSM value, D (position 11)” value does the source give for “APRITFGGPSDSTGSN D11I (APRITFGGPSISTGSN)” here?
**A.** The value was 0.002718.

**Q.** How did the “DMS PSSM value, P (position 2)” value turn out when APRITFGGPSDSTGSN P2W (AWRITFGGPSDSTGSN) was run?
**A.** Its value is 0.

**Q.** Which “DMS PSSM value, A (position 1)” value does the source give for APRITFGGPSDSTGSN A1G (GPRITFGGPSDSTGSN) here?
**A.** Its value is 0.004858.

**Q.** Which “DMS PSSM value, A (position 1)” value does the source give for APRITFGGPSDSTGSN A1F (FPRITFGGPSDSTGSN) here?
**A.** Its value is 0.0004523.

**Q.** For APRITFGGPSDSTGSN F6Q (APRITQGGPSDSTGSN), which “DMS PSSM value, F (position 6)” value is on record?
**A.** The value was 0.

**Q.** With APRITFGGPSDSTGSN I4Y (APRYTFGGPSDSTGSN) as the sequence, how does the “DMS PSSM value, I (position 4)” value read?
**A.** The value was 0.

**Q.** For “APRITFGGPSDSTGSN S12W (APRITFGGPSDWTGSN)”, which “DMS PSSM value, S (position 12)” value is on record?
**A.** Its value is 0.01354.

**Q.** With “APRITFGGPSDSTGSN S15N (APRITFGGPSDSTGNN)” as the sequence, how does the “DMS PSSM value, S (position 15)” value read?
**A.** The value was 0.001916.

**Q.** Which “DMS PSSM value, R (position 3)” value does the source give for APRITFGGPSDSTGSN R3V (APVITFGGPSDSTGSN) here?
**A.** The value was 0.00164.

**Q.** APRITFGGPSDSTGSN G8H (APRITFGHPSDSTGSN) was tested. Which “DMS PSSM value, G (position 8)” value did it give?
**A.** The value was 0.

**Q.** How did the “DMS PSSM value, S (position 10)” value turn out when “APRITFGGPSDSTGSN S10D (APRITFGGPDDSTGSN)” was run?
**A.** The value was 0.

**Q.** How did the “DMS PSSM value, P (position 9)” value turn out when APRITFGGPSDSTGSN P9D (APRITFGGDSDSTGSN) was run?
**A.** The value was 0.

**Q.** “APRITFGGPSDSTGSN S15D (APRITFGGPSDSTGDN)” was tested. Which “DMS PSSM value, S (position 15)” value did it give?
**A.** Its value is 0.002282.

**Q.** For APRITFGGPSDSTGSN F6H (APRITHGGPSDSTGSN), which “DMS PSSM value, F (position 6)” value is on record?
**A.** Its value is 0.

**Q.** APRITFGGPSDSTGSN T5E (APRIEFGGPSDSTGSN) was tested. Which “DMS PSSM value, T (position 5)” value did it give?
**A.** Its value is 0.4512.

**Q.** With APRITFGGPSDSTGSN G8F (APRITFGFPSDSTGSN) as the sequence, how does the “DMS PSSM value, G (position 8)” value read?
**A.** Its value is 0.

**Q.** How did the “DMS PSSM value, A (position 1)” value turn out when APRITFGGPSDSTGSN A1Q (QPRITFGGPSDSTGSN) was run?
**A.** The value was 0.01117.

**Q.** With “APRITFGGPSDSTGSN G14E (APRITFGGPSDSTESN)” as the sequence, how does the “DMS PSSM value, G (position 14)” value read?
**A.** Its value is 0.002668.

**Q.** “APRITFGGPSDSTGSN T13Q (APRITFGGPSDSQGSN)” was tested. Which “DMS PSSM value, T (position 13)” value did it give?
**A.** The value was 0.01432.

**Q.** With APRITFGGPSDSTGSN F6I (APRITIGGPSDSTGSN) as the sequence, how does the “DMS PSSM value, F (position 6)” value read?
**A.** The value was 0.

**Q.** “APRITFGGPSDSTGSN D11H (APRITFGGPSHSTGSN)” was tested. Which “DMS PSSM value, D (position 11)” value did it give?
**A.** The value was 0.001494.

**Q.** For APRITFGGPSDSTGSN F6E (APRITEGGPSDSTGSN), which “DMS PSSM value, F (position 6)” value is on record?
**A.** Its value is 0.

**Q.** Which “DMS PSSM value, T (position 13)” value does the source give for “APRITFGGPSDSTGSN T13K (APRITFGGPSDSKGSN)” here?
**A.** Its value is 0.

**Q.** For APRITFGGPSDSTGSN G8M (APRITFGMPSDSTGSN), which “DMS PSSM value, G (position 8)” value is on record?
**A.** Its value is 0.

**Q.** With “APRITFGGPSDSTGSN S15W (APRITFGGPSDSTGWN)” as the sequence, how does the “DMS PSSM value, S (position 15)” value read?
**A.** Its value is 0.00112.

**Q.** With APRITFGGPSDSTGSN F6D (APRITDGGPSDSTGSN) as the sequence, how does the “DMS PSSM value, F (position 6)” value read?
**A.** The value was 0.

**Q.** With APRITFGGPSDSTGSN G8V (APRITFGVPSDSTGSN) as the sequence, how does the “DMS PSSM value, G (position 8)” value read?
**A.** Its value is 0.0004532.

**Q.** Which “DMS PSSM value, P (position 9)” value does the source give for APRITFGGPSDSTGSN P9V (APRITFGGVSDSTGSN) here?
**A.** Its value is 0.001999.

**Q.** APRITFGGPSDSTGSN G8N (APRITFGNPSDSTGSN) was tested. Which “DMS PSSM value, G (position 8)” value did it give?
**A.** The value was 0.

**Q.** With APRITFGGPSDSTGSN G7T (APRITFTGPSDSTGSN) as the sequence, how does the “DMS PSSM value, G (position 7)” value read?
**A.** The value was 0.

same assay, conditions: library DMS-CoV; bait G3BP1 NFT2; prey N; peptide RNAPRITFGGPSDSTG; listed as aa = residue placed at this position; column sums to 1

**Q.** RNAPRITFGGPSDSTG P4Q (RNAQRITFGGPSDSTG) was tested. Which “DMS PSSM value, P (position 4)” value did it give?
**A.** Its value is 0.08846.

**Q.** “RNAPRITFGGPSDSTG P11T (RNAPRITFGGTSDSTG)” was tested. Which “DMS PSSM value, P (position 11)” value did it give?
**A.** Its value is 0.

**Q.** For “RNAPRITFGGPSDSTG D13P (RNAPRITFGGPSPSTG)”, which “DMS PSSM value, D (position 13)” value is on record?
**A.** Its value is 1.

**Q.** Which “DMS PSSM value, G (position 16)” value does the source give for “RNAPRITFGGPSDSTG G16S (RNAPRITFGGPSDSTS)” here?
**A.** Its value is 0.

**Q.** How did the “DMS PSSM value, G (position 10)” value turn out when “RNAPRITFGGPSDSTG G10S (RNAPRITFGSPSDSTG)” was run?
**A.** The value was 0.

**Q.** With RNAPRITFGGPSDSTG N2Y (RYAPRITFGGPSDSTG) as the sequence, how does the “DMS PSSM value, N (position 2)” value read?
**A.** Its value is 0.
